A word on the melting point: it is the temperature, or range, at which the solid turns liquid.

`CS(=O)(=O)c1ccc(C2CNCCO2)cc1` (stereo not given) returned a melting point of 109 to 111 °C.

Turning to `O=C(O)c1ccc(Cl)c(N2CCCC2=O)c1`, the melting point fell in the range of 288 to 290 °C.

The compound `NCc1noc(-c2ccccc2)n1` returned a melting point of 115 to 117 °C.

For the compound `CN(CC(=O)O)c1ncnc2nc[nH]c12`, the melting point was 237 to 239 °C.

As to `O=C(O)c1ccccc1SC(F)F`, the melting point lay in the range of 114 to 116 °C.

Turning to `Cc1cc(C)c2ncc(C(=O)O)c(O)c2c1`, the melting point fell in the range of 282 to 284 °C.

Regarding `O=C(O)c1ccc(Cn2cc(Br)cn2)o1`, the melting point is 128 to 130 °C.

Consider `O=C(O)CNc1ncccn1`, for which the melting point was 169 to 171 °C.

`CN1C(=O)c2cccc(N)c2C1=O`: the melting point was 199 to 201 °C.

`NS(=O)(=O)c1cc(Cl)ccc1[N+](=O)[O-]` showed a melting point of 157 to 159 °C.

`Sc1nnc2n(-c3ccccc3)c(-c3ccccc3)nn12` yielded a melting point of 237 to 239 °C.

For `S=C=Nc1cccnc1Cl`, the melting point is 35 to 37 °C.

As to `OC(c1ccccc1)C1CCCCN1` (stereo not given), the melting point fell in the range of 136 to 138 °C.

For `O=C(O)C=Cc1ccc2ccc(Cl)cc2n1`, the melting point lay within 226 to 228 °C.

Regarding `Nc1nnc(CCCc2cccs2)o1`, the melting point fell in the range of 149 to 151 °C.

Consider `Nc1ccc2[nH]c(CCN3CCOCC3)nc2c1`, for which the melting point fell in the range of 201 to 203 °C.

Compound `Cc1cc2ncn(Cc3ccc(F)cc3)c2cc1C` returned a melting point of 135 to 137 °C.

Turning to `O=Cc1ccc(-c2ccccc2[N+](=O)[O-])s1`, the melting point was in the range of 112 to 114 °C.

In turn, `COc1cccc(NC(=O)OCC(F)(F)F)c1` registered a melting point of 58 to 60 °C.

`CC(=O)NC1CCC(N)CC1` (stereo not given) came in with a melting point of 129 to 131 °C.

Take `Cc1cc(N2CCCC2=O)ccc1S(=O)(=O)Cl`: the melting point lay within 104 to 106 °C.

`COc1ccc2oc(C)c(C(=O)O)c2c1` gave a melting point of 209 to 211 °C.

Take `O=C(O)Cc1ccc(C(F)F)cc1`: the melting point fell in the range of 76 to 78 °C.

Turning to `CC1CN(C(=O)c2ccc(N)cc2)CC(C)O1` (stereo not given), the melting point was 174 to 176 °C.

On to `Cc1ccccc1-n1c(S)nc2sc3c(c2c1=O)CCC(C)C3` (stereo not given), for which the melting point lay in the range of 230 to 232 °C.

In the case of `NC(=O)c1ccc2c(c1)CCCC2`, the melting point lay within 140 to 142 °C.

Consider `O=C(O)c1cn(-c2ccccc2)nc1-c1ccncc1`, for which the melting point lay in the range of 235 to 237 °C.

Compound `Nc1cc(-n2cnnn2)ccc1Cl` had a melting point of 159 to 161 °C.

In turn, `COc1ccc(S(=O)(=O)Cl)c([N+](=O)[O-])c1` registered a melting point of 75 to 79 °C.

Consider `Nc1cccc(C#Cc2ccccc2)c1`, for which the melting point fell in the range of 47 to 49 °C.

As to `Nc1ccnc(-c2ccccc2)c1`, the melting point lay in the range of 126 to 128 °C.

Take `O=C1CCc2cc(F)c([N+](=O)[O-])cc2N1`: the melting point fell in the range of 154 to 156 °C.

On to `CNCC(O)COc1ccc([N+](=O)[O-])cc1` (stereo not given), for which the melting point lay within 142 to 144 °C.

For `O=[N+]([O-])c1cn[nH]c1C1CC1`, the melting point lay within 95 to 97 °C.

Compound `NC(=S)N1CCN(c2ccc(Cl)cc2)CC1` returned a melting point of 176 to 178 °C.

Compound `Cc1cc(NC(=O)CCl)n(C)n1` returned a melting point of 115 to 117 °C.

Compound `CCOc1cccc(C=CC(=O)O)c1OC1CCCC1` showed a melting point of 133 to 135 °C.

In the case of `O=[N+]([O-])c1cccc2cc(I)cnc12`, the melting point lay within 118 to 120 °C.

In turn, `Nc1nc2cc3c(cc2s1)OCCCO3` displayed a melting point of 218 to 220 °C.

Regarding `Cc1nn(-c2ccccc2)c(Cl)c1CCl`, the melting point lay within 35 to 41 °C.

With `Cc1cccc(C)c1OCCC(=O)O`, the melting point fell in the range of 51 to 53 °C.

For the compound `OC1CCc2c(OCc3ccccc3)cccc21` (stereo not given), the melting point fell in the range of 86 to 88 °C.

In turn, `NC(=O)Cc1ccc(Cl)cc1` gave a melting point of 183 to 185 °C.

For the compound `CC(=O)NNC(=O)C(C)Cl` (stereo not given), the melting point was 156 to 158 °C.

The compound `NC(=O)c1cnc(N)c(Cl)c1` displayed a melting point of 217 to 219 °C.

Regarding `CN(Cc1cc(C#N)ccc1F)C(=O)CCl`, the melting point is 103 to 105 °C.

Compound `COc1ccc(S(=O)(=O)Cl)cc1C1(C)NC(=O)NC1=O` (stereo not given) returned a melting point of 214 to 216 °C.

With `CCOc1ccc(NS(=O)(=O)c2ccc(C)c(N)c2)cc1`, the melting point was in the range of 116 to 118 °C.

In turn, `O=C(CCn1ccnc1)NC1CCC(C(=O)O)CC1` (stereo not given) displayed a melting point of 229 to 231 °C.

In the case of `Nc1ccccc1CC(=O)O`, the melting point fell in the range of 119 to 121 °C.

`NCc1ccc(N2CCS(=O)(=O)CC2)cc1` yielded a melting point of 97 to 99 °C.

In turn, `CC(Cl)C(=O)NCc1ccc(Cl)cc1` (stereo not given) gave a melting point of 100 to 102 °C.

`O=C(O)CS(=O)(=O)c1ccc(Br)cc1` returned a melting point of 145 to 147 °C.

In turn, `COc1ccc(C(=O)N2CCCC2)cc1N` showed a melting point of 137 to 139 °C.

Consider `Nc1cc(-c2cccc(C(F)(F)F)c2)no1`, for which the melting point was 89 to 91 °C.

`O=C(O)Cc1coc2ccc3ccccc3c12` came in with a melting point of 166 to 168 °C.

Compound `O=Cc1cc(Cl)cc2c1OCC2` returned a melting point of 85 to 87 °C.

The compound `O=C(CC(F)(F)F)c1ccccc1` showed a melting point of 37 to 39 °C.

Compound `O=C(CCl)c1ccc2c(c1)CCCC2` gave a melting point of 62 to 64 °C.

`O=c1[nH]c(CN2CCNCC2)nc2ccccc12` registered a melting point of 167 to 169 °C.

As to `COc1ccc(-c2cc(N)ccc2OC(F)F)cc1`, the melting point was in the range of 131 to 135 °C.

Turning to `Nc1c(C(=O)O)cnc2ccccc12`, the melting point was in the range of 303 to 305 °C.

Regarding `Cc1c(C(=O)O)cc(F)cc1S(=O)(=O)Cl`, the melting point was 121 to 123 °C.

Consider `Nc1nonc1C(=O)N1CCCC1`, for which the melting point fell in the range of 192 to 194 °C.

`COc1nc(C)ccc1C#N` had a melting point of 84 to 86 °C.

`O=C(O)c1ccccc1C(=O)N1CCCC1`: the melting point is 131 to 133 °C.

`Cc1ccc(-c2nnc(Cl)c3ccccc23)cc1C`: the melting point lay within 241 to 243 °C.

Compound `NS(=O)(=O)c1cccc2cnccc12` registered a melting point of 222 to 224 °C.

With `CS(=O)(=O)Nc1ccc(C(=O)O)cc1`, the melting point is 198 to 200 °C.

Turning to `CN(C(=O)c1ccccc1C(=O)O)C1CCCCC1`, the melting point is 144 to 146 °C.

The compound `O=C(O)c1cc(Cl)ccc1Oc1ccc(F)cc1` returned a melting point of 102 to 104 °C.

Consider `O=C(O)c1cccnc1Sc1ccc2c(c1)OCCO2`, for which the melting point lay within 228 to 230 °C.

Compound `O=C1CCS(=O)(=O)c2cc(F)c(F)cc21` had a melting point of 149 to 151 °C.

For the compound `Cc1cc(C=O)c(C)n1-c1nccs1`, the melting point was 43 to 45 °C.

The compound `CC(C)Oc1cnc(C(=O)O)cn1` displayed a melting point of 109 to 111 °C.

Take `NC(=O)c1sc2nc(C3CC3)cc(-c3ccccc3)c2c1N`: the melting point fell in the range of 185 to 187 °C.

As for `CC(=O)c1ccc(NC(=O)NC(C)C)cc1`, the melting point fell in the range of 147 to 149 °C.

For the compound `N#Cc1ccc(Cn2cnc3ccccc32)cc1`, the melting point lay within 103 to 105 °C.

Regarding `O=C(O)CN1CCCC1CO` (stereo not given), the melting point fell in the range of 146 to 148 °C.

`Cn1cnc([N+](=O)[O-])c1Oc1ccc(Br)cc1` yielded a melting point of 129 to 131 °C.

`CNCC(=O)Nc1ccc(C)cn1` gave a melting point of 79 to 81 °C.

`O=C(O)COc1ccc2c3c(c(=O)oc2c1)CCC3` showed a melting point of 170 to 172 °C.

Take `Cc1ccc(C)c(S(=O)(=O)Oc2ccccc2C(=O)O)c1`: the melting point lay in the range of 120 to 122 °C.

`CNc1snc(C)c1C(=O)OC` had a melting point of 56 to 58 °C.

For `Cc1nn(-c2ccccc2F)c(C)c1N`, the melting point lay within 59 to 61 °C.

For the origin of these results see a melting point compilation (Tetko et al.).
